Assay [1] has as its system immune cell populations in different tissues and organs. Briefly: Delivery efficiency of eGFP mRNA encapsulating LNP to immune cell populations in different tissues and organs (flow cytometry). The format is in vivo. Conditions: eGFP mRNA-LNP intravenous, C57BL/6 mice, 6 hours; spleen, axillary lymph nodes, peripheral blood, bone marrow, lungs, liver; FIGS. 1A to 1F. Here is the method: C57BL/6 mice (3 mice per group) were intravenously injected with eGFP mRNA encapsulating LNP. After 6 hours, the mice were dissected, and the spleen, axillary lymph nodes, peripheral blood, bone marrow, lungs and liver were collected to prepare single-cell suspensions of various tissues and organs. After blocking with Fe blocking antibodies and surface staining with fluorescent-labeled antibodies, sample analysis was conducted by flow cytometry to analyze the expression levels of eGFP in various immune cell populations to confirm the delivery efficiency of lipid nanoparticles comprising different amino lipid compounds to immune cell populations in different tissues and organs.
(Flow cytometry measures light scatter and fluorescence of single cells or particles in a stream.)

A further assay deals with BALB/c mice. Briefly: In vivo delivery of lipid nanoparticle encapsulating luciferase mRNA (Fluc mRNA), IVIS imaging. The settings on record: for Total flux (fluorescence expression intensity): Fluc mRNA-LNP (amino lipid:DSPC:CHO-HP:PEG2000-DMG 48:10:40.5:1.5), whole body; for Total flux (fluorescence expression intensity) / Spleen (fluorescence expression intensity) / Liver (fluorescence expression intensity): 75 μL tail vein IV, female BALB/c mice, IVIS 6 hours after injection; for Spleen (fluorescence expression intensity) / (Spleen/Total Flux) * 100% / Multiple of spleen delivery/total delivery (Spleen/Total Flux) to Compound 118 / Liver (fluorescence expression intensity): Fluc mRNA-LNP; for (Spleen/Total Flux) * 100% / Multiple of spleen delivery/total delivery (Spleen/Total Flux) to Compound 118: tail vein IV, BALB/c mice, 6 hours; for Multiple of spleen delivery/total delivery (Spleen/Total Flux) to Compound 118: relative to Compound 118. As to the method: The amino lipid compound of the present disclosure, a helper lipid, a structural lipid, and a PEG-lipid were separately dissolved in absolute ethanol to prepare respective solutions at concentrations of 20 mg/mL, 10 mg/mL, 20 mg/mL, and 25 mg/mL, respectively. The above four solutions were pipetted at a molar ratio of the amino lipid compound: DSPC:CHO-HP:PEG2000-DMG of 48:10:40.5:1.5, and mixed well to prepare an alcohol phase.
(2) Encapsulation: The water phase and the alcohol phase were injected into a microfluidic chip at a flow rate of water phase:alcohol phase=12 mL/min: 4 mL/min by using a microfluidic preparation instrument (MPE-L2), and encapsulation was carried out at a flow rate of water phase:alcohol phase=9 mL/min: 3 mL/min to obtain mRNA-encapsulating lipid nanoparticle (mRNA-LNP).
(3) Dialysis: The product of step (2) was loaded in a dialysis bag and placed in a Tris Buffer-8% sucrose solution for replacement to remove ingredients such as residual ethanol, unassembled lipids. Dialysis was conducted for 2 h with magnetic stirring at room temperature and under protection from light (dialysate was replaced every 1 hour).
(4) The product of step (3) was sterilized by passing through a 0.22 μm microporous membrane, and then packaged.
Lipid nanoparticle formulations encapsulating Flue mRNA were prepared, with a concentration of Flue mRNA of 0.2 μg/μL, a mass ratio of Flue mRNA to Lipid of 1:10, a particle size of 80-130 nm, and a encapsulation efficiency of 80% or higher.
• Animal preparation: Female BALB/c mice of 6-8 weeks old were selected and raised in an SPF grade breeding room. Animal testing was conducted in strict accordance with the guidelines of national health institutions and animal ethics requirements.
In vivo Delivery: prior to injection of the test LNP formulations, the LNP formulations were gently and repeatedly inverted to thoroughly mix the formulation samples. A corresponding amount of the formulation samples were aspirated with a 1 ml insulin syringe, and the LNP formulations were injected by tail vein injection (IV), with 3 mice in duplicate per formulation. Each mouse was injected with 75 μL of the luciferase mRNA (Flue mRNA)-encapsulating lipid nanoparticle formulation prepared in Experimental Example 1.
6 hours after injection of LNP formulations, mice were injected with 200 μL D-Luciferin luciferase developing substrate (Catalog No. 122799; Manufacturer: Perkin Elmer). After the substrate was injected, the mice were anesthetized by injection of 200 μl of 2.5% avertin, and the injection time of luciferase developing substrate was recorded.
The fluorescence expression intensity induced by the lipid nanoparticle encapsulating luciferase mRNA (Flue mRNA) with a representative amino lipid compound is shown in Table 4, with the amino lipid compound 118 as a control.

The record followed here is patent US20260015315A1, “AMINO LIPID COMPOUND, PREPARATION METHOD THEREFOR, COMPOSITION THEREOF AND APPLICATION THEREOF” (SHENZHEN SHENXIN BIOTECHNOLOGY CO., LTD., priority 2022, published 2026).

Structures are written as SMILES.

As to `CCCCCCC(CCCCCC)OC(=O)CCCCCCCCC(CCCCCCCCC(=O)OC(CCCCCC)CCCCCC)N(CCCN(C)C)C(=O)CCCOCCCCC` [compound 130], the “Delivery preference to immune cells (eGFP expression in immune cell populations)” value in assay [1] was “clear delivery preference to immune cells in various tissues and organs”. In the assay on BALB/c mice, the “Total flux (fluorescence expression intensity)” value turned out to be 5.73E+07, the “Spleen (fluorescence expression intensity)” value worked out at 1.13E+07, the “(Spleen/Total Flux) * 100%” value was 19.72% and the “Multiple of spleen delivery/total delivery (Spleen/Total Flux) to Compound 118” value (shortened to “Multiple … (Spleen/Total Flux) to Compound 118”) was found to be 17.30.
On to `CCCCCCOCCC(=O)N(CCN(C)C)C(CCCCCCCCC(=O)OC(CCCCCC)CCCCCC)CCCCCCCCC(=O)OC(CCCCCC)CCCCCC` [compound 151], for which, in the assay on BALB/c mice, the “Total flux (fluorescence expression intensity)” value is given as 2.29E+07, the “Liver (fluorescence expression intensity)” value turned out to be 8.91E+06, the “Spleen (fluorescence expression intensity)” value came out at 1.30E+05 and the “(Spleen/Total Flux) * 100%” value was 0.57%. Further, in the assay on BALB/c mice, the “Multiple … (Spleen/Total Flux) to Compound 118” value came out at 0.50.
Consider `CCCCCCOCCCC(=O)N(CCN(C)C)C(CCCCCCCCC(=O)OC(CCCCCC)CCCCCC)CCCCCCCCC(=O)OC(CCCCCC)CCCCCC` [compound 156], for which, in the assay on BALB/c mice, the “Total flux (fluorescence expression intensity)” value was 3.07E+07, the “Liver (fluorescence expression intensity)” value is listed as 9.75E+06, the “Spleen (fluorescence expression intensity)” value was found to be 2.34E+05 and the “(Spleen/Total Flux) * 100%” value stood at 0.76%. In addition, the “Multiple … (Spleen/Total Flux) to Compound 118” value with BALB/c mice came out at 0.67.
For `CCCCCCCOCCCC(=O)N(CCN(C)C)C(CCCCCCCCC(=O)OC(CCCCCC)CCCCCC)CCCCCCCCC(=O)OC(CCCCCC)CCCCCC` [compound 157] the same measures were 2.80E+07, 1.07E+07, 2.26E+05, 0.81% and 0.71.
For `CCCCCCC(CCCCCC)OC(=O)CCCCCCCCC(CCCCCCCCC(=O)OC(CCCCCC)CCCCCC)N(CCCCN(C)C)C(=O)COCCCC` [compound 166] the same measures were 1.25E+07, 7.74E+06, 8.07E+06, 64.56% and 56.63.
For `CCCCCCC(CCCCCC)OC(=O)CCCCCCCCC(CCCCCCCCC(=O)OC(CCCCCC)CCCCCC)N(CCCCN(C)C)C(=O)COCCCCC` [compound 167] the same measures were 4.02E+07, 4.42E+06, 7.64E+06, 19.00% and 16.67.
Consider `CCCCCCOCC(=O)N(CCCCN(C)C)C(CCCCCCCCC(=O)OC(CCCCCC)CCCCCC)CCCCCCCCC(=O)OC(CCCCCC)CCCCCC` [compound 168], for which, in the assay on BALB/c mice, the “Total flux (fluorescence expression intensity)” value stood at 2.68E+07, the “Liver (fluorescence expression intensity)” value is listed as 9.12E+06, the “Spleen (fluorescence expression intensity)” value is given as 8.95E+06 and the “(Spleen/Total Flux) * 100%” value came to 33.40%. Moreover, the “Multiple … (Spleen/Total Flux) to Compound 118” value with BALB/c mice is 29.29.
As for `CCCCCCCOCC(=O)N(CCCCN(C)C)C(CCCCCCCCC(=O)OC(CCCCCC)CCCCCC)CCCCCCCCC(=O)OC(CCCCCC)CCCCCC` [compound 169], in the assay on BALB/c mice, the “Total flux (fluorescence expression intensity)” value turned out to be 1.17E+07, the “Liver (fluorescence expression intensity)” value stood at 6.59E+06, the “Spleen (fluorescence expression intensity)” value worked out at 5.11E+06 and the “(Spleen/Total Flux) * 100%” value was 43.68%. In the assay with BALB/c mice, the “Multiple … (Spleen/Total Flux) to Compound 118” value was determined as 38.31.
For `CCCCCCCCOCC(=O)N(CCCCN(C)C)C(CCCCCCCCC(=O)OC(CCCCCC)CCCCCC)CCCCCCCCC(=O)OC(CCCCCC)CCCCCC` [compound 170], in the assay with BALB/c mice, the “Total flux (fluorescence expression intensity)” value was 2.89E+07, the “Liver (fluorescence expression intensity)” value is reported as 1.34E+07, the “Spleen (fluorescence expression intensity)” value amounted to 1.07E+07 and the “(Spleen/Total Flux) * 100%” value turned out to be 37.02%. Further, the “Multiple … (Spleen/Total Flux) to Compound 118” value in the assay with BALB/c mice was determined as 32.48.
Regarding `CCCCCCC(CCCCCC)OC(=O)CCCCCCCCC(CCCCCCCCC(=O)OC(CCCCCC)CCCCCC)N(CCCCN(C)C)C(=O)CCOCCCC` [compound 171], in the assay with BALB/c mice, the “Total flux (fluorescence expression intensity)” value was found to be 1.15E+07, the “Liver (fluorescence expression intensity)” value came out at 5.33E+06, the “Spleen (fluorescence expression intensity)” value came out at 3.97E+06 and the “(Spleen/Total Flux) * 100%” value is given as 34.52%. Further, the “Multiple … (Spleen/Total Flux) to Compound 118” value in the assay with BALB/c mice turned out to be 30.28.
Regarding `CCCCCCC(CCCCCC)OC(=O)CCCCCCCCC(CCCCCCCCC(=O)OC(CCCCCC)CCCCCC)N(CCCCN(C)C)C(=O)CCOCCCCC` [compound 172], in the assay with BALB/c mice, the “Total flux (fluorescence expression intensity)” value turned out to be 8.64E+07, the “Liver (fluorescence expression intensity)” value is given as 3.10E+07, the “Spleen (fluorescence expression intensity)” value is recorded as 9.69E+06 and the “(Spleen/Total Flux) * 100%” value is 11.22%. The “Multiple … (Spleen/Total Flux) to Compound 118” value in the assay on BALB/c mice is reported as 9.84.
For the molecule `CCCCCCOCCC(=O)N(CCCCN(C)C)C(CCCCCCCCC(=O)OC(CCCCCC)CCCCCC)CCCCCCCCC(=O)OC(CCCCCC)CCCCCC` [compound 173], in the assay with BALB/c mice, the “Total flux (fluorescence expression intensity)” value was found to be 2.07E+07, the “Liver (fluorescence expression intensity)” value worked out at 9.15E+06, the “Spleen (fluorescence expression intensity)” value is recorded as 8.03E+06 and the “(Spleen/Total Flux) * 100%” value is recorded as 38.79%. Besides, the “Multiple … (Spleen/Total Flux) to Compound 118” value in the assay with BALB/c mice worked out at 34.03.
In the same order, the values of `CCCCCCCOCCC(=O)N(CCCCN(C)C)C(CCCCCCCCC(=O)OC(CCCCCC)CCCCCC)CCCCCCCCC(=O)OC(CCCCCC)CCCCCC` [compound 174] are 9.59E+07, 1.62E+07, 7.28E+06, 7.59% and 6.66.
Regarding `CCCCCCCCOCCC(=O)N(CCCCN(C)C)C(CCCCCCCCC(=O)OC(CCCCCC)CCCCCC)CCCCCCCCC(=O)OC(CCCCCC)CCCCCC` [compound 175], in the assay on BALB/c mice, the “Total flux (fluorescence expression intensity)” value is listed as 5.15E+07, the “Liver (fluorescence expression intensity)” value came to 1.57E+07, the “Spleen (fluorescence expression intensity)” value is listed as 1.21E+07 and the “(Spleen/Total Flux) * 100%” value was found to be 23.50%. Moreover, in the assay with BALB/c mice, the “Multiple … (Spleen/Total Flux) to Compound 118” value is given as 20.61.
For `CCCCCCC(CCCCCC)OC(=O)CCCCCCCCC(CCCCCCCCC(=O)OC(CCCCCC)CCCCCC)N(CCCCN(C)C)C(=O)CCCOCCCCC` [compound 177] the same measures were 2.52E+07, 5.04E+06, 3.23E+06, 12.82% and 11.24.
For `CCCCCCOCCCC(=O)N(CCCCN(C)C)C(CCCCCCCCC(=O)OC(CCCCCC)CCCCCC)CCCCCCCCC(=O)OC(CCCCCC)CCCCCC` [compound 178] the same measures were 6.68E+07, 1.15E+07, 3.95E+06, 5.91% and 5.19.
